Test systems include HCT-116 colon; KM12 colon; LOX IMVI melanoma; OVCAR-3 ovarian; SF-268 CNS; SNB-19 CNS; U251 CNS; SK-MEL-5 melanoma; TK-10 renal; UACC-257 melanoma.
Assay in all cases: DTP human tumour cell line panel, 48 h

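Results reflect a 48-hour exposure of cells in 96-well plates to compound at five concentrations. TGI is the concentration that stops growth completely.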

The TGI is the concentration at which net growth stops. Higher therefore signals less potent growth arrest.

Regarding `COc1cc([C@@H]2OCC3C(c4ccc5c(c4)OCO5)OCC32)cc(OC)c1OC` (stereo partly specified), the TGI with HCT-116 colon, in the assay on KM12 colon, in the assay with LOX IMVI melanoma, in the assay on OVCAR-3 ovarian, with SF-268 CNS and in the assay with SNB-19 CNS was above 100 µM throughout. In addition, the TGI with U251 CNS is above 100 µM.
On to `COc1ccc(N2C(=O)C3c4[nH]c5ccccc5c4C4CCC(C(C)(C)C)CC4C3C2=O)c(C)c1` (stereo unspecified), for which the TGI with HCT-116 colon, in the assay on KM12 colon, with OVCAR-3 ovarian, with SF-268 CNS, in the assay with SK-MEL-5 melanoma and with SNB-19 CNS was above 100 µM each time. The TGI in the assay on TK-10 renal, in the assay with U251 CNS and in the assay on UACC-257 melanoma was above 100 µM each time.
In the case of `O=C1CCC23CC(C=CC=C12)n1c(=O)n(-c2ccccc2)c(=O)n13` (stereo unspecified), the TGI in the assay on HCT-116 colon, in the assay with KM12 colon, with LOX IMVI melanoma, in the assay with OVCAR-3 ovarian, in the assay with SF-268 CNS and in the assay with SK-MEL-5 melanoma was above 100 µM throughout. The TGI in the assay on SNB-19 CNS, with U251 CNS and in the assay with UACC-257 melanoma was above 100 µM in each case.
Turning to `O=c1[nH]cc(N=Cc2cc(Cl)cc(Cl)c2O)c(=O)[nH]1`, the TGI in the assay on HCT-116 colon was 43.3 µM; with KM12 colon it was 85 µM; in the assay with OVCAR-3 ovarian it was 47.1 µM; in the assay with SF-268 CNS, 47.4 µM; in the assay with SK-MEL-5 melanoma, 42.6 µM; in the assay with SNB-19 CNS it was above 100 µM. Moreover, the TGI in the assay on TK-10 renal is above 100 µM; in the assay with U251 CNS, above 100 µM; with UACC-257 melanoma it was 83.8 µM.
Regarding `Oc1cc2c3c(c1)c1cc4c(cc1c[n+]3CC2)OCO4`, the TGI is above 40.5 µM in the assay on HCT-116 colon; 13.9 µM in the assay with KM12 colon; 18.4 µM with LOX IMVI melanoma; above 50.9 µM in the assay with OVCAR-3 ovarian; 8.9 µM with SF-268 CNS; above 100 µM with SK-MEL-5 melanoma. Further, the TGI is 10.2 µM in the assay with SNB-19 CNS, above 75.7 µM with TK-10 renal and above 57.4 µM in the assay on UACC-257 melanoma.
As to `O=C(O)c1cccc2c1/C(=N/Nc1ccccc1)CC2`, the TGI with HCT-116 colon, in the assay on KM12 colon, with LOX IMVI melanoma, in the assay with OVCAR-3 ovarian, in the assay with SF-268 CNS and in the assay on SK-MEL-5 melanoma was above 100 µM throughout. Also, the TGI in the assay with TK-10 renal, with U251 CNS and with UACC-257 melanoma was above 100 µM throughout.
For the compound `c1ccc(N=C2SC3=Nc4cccc5cccc(c45)N3C2=Nc2ccccc2)cc1`, the TGI with KM12 colon, with OVCAR-3 ovarian, with SK-MEL-5 melanoma, in the assay on SNB-19 CNS and with U251 CNS was above 100 µM throughout.
On to `Cc1ccccc1-n1c(=O)c2ncn(CCCl)c2n(-c2ccccc2C)c1=S`, for which the TGI in the assay with HCT-116 colon, in the assay on KM12 colon, in the assay on LOX IMVI melanoma, with OVCAR-3 ovarian, in the assay with SF-268 CNS and with SK-MEL-5 melanoma was above 100 µM in each case. Also, the TGI in the assay on TK-10 renal, in the assay with U251 CNS and with UACC-257 melanoma was above 100 µM in each case.
Turning to `CC1(C)N=C(/C(Cl)=[N+](/[O-])C(=O)c2ccc(F)cc2)C(C)(C)N1O`, the TGI with HCT-116 colon is 30.6 µM; with KM12 colon it was 67.8 µM; in the assay on LOX IMVI melanoma, 24.3 µM; in the assay with OVCAR-3 ovarian, 31.2 µM; with SF-268 CNS it was 33.6 µM; in the assay on SK-MEL-5 melanoma, 30.4 µM. Further, the figures for the TGI in the assay on SNB-19 CNS, in the assay with TK-10 renal and with UACC-257 melanoma were above 100 µM, 29.7 µM and 32.3 µM, respectively.
Take `N#CN=C(N(Cc1ccccc1)Cc1ccccc1)N(Cc1ccccc1)Cc1ccccc1`: the TGI in the assay with HCT-116 colon is above 100 µM; with KM12 colon, above 100 µM; in the assay with LOX IMVI melanoma, above 100 µM; with OVCAR-3 ovarian, 31.7 µM; in the assay with SF-268 CNS, above 100 µM; in the assay with SNB-19 CNS, above 100 µM. Besides, the TGI in the assay with UACC-257 melanoma was above 100 µM.
As for `[N-]=[N+]=Nc1cc(=O)oc2ccccc12`, the TGI in the assay on HCT-116 colon, in the assay on KM12 colon, with LOX IMVI melanoma, in the assay with SF-268 CNS, in the assay on SK-MEL-5 melanoma and in the assay with TK-10 renal was above 100 µM in each case. The TGI in the assay on U251 CNS and in the assay with UACC-257 melanoma was above 100 µM in each case.
For `CCOC(=O)N1CCC2(CC1)C[C@](C)(C(C)=O)C(C)O2` (stereo partly specified), the TGI in the assay on KM12 colon, with LOX IMVI melanoma, in the assay on OVCAR-3 ovarian, in the assay with SF-268 CNS, in the assay with SK-MEL-5 melanoma and in the assay with SNB-19 CNS was above 100 µM each time. Further, the TGI in the assay on TK-10 renal, in the assay on U251 CNS and with UACC-257 melanoma was above 100 µM throughout.
In the case of `CNC(=O)C(C)C1CCC2(C)C=CC(=O)C(C)=C2C1O` (stereo unspecified), the TGI with HCT-116 colon was above 100 µM; in the assay with KM12 colon it was above 100 µM; in the assay with LOX IMVI melanoma, above 100 µM; with OVCAR-3 ovarian it was above 100 µM; with SF-268 CNS, above 100 µM; in the assay on SK-MEL-5 melanoma, above 60.1 µM. Also, the TGI in the assay on SNB-19 CNS was above 100 µM; with U251 CNS it was above 64.9 µM; with UACC-257 melanoma, above 100 µM.
With `CC(=O)O[C@H]1C(=O)[C@]2(C)[C@@H](OC(=O)OCCC(O)CO)C[C@H]3OC[C@@]3(OC(C)=O)[C@H]2[C@H](OC(=O)c2ccccc2)[C@]2(O)C[C@H](OC(=O)[C@H](O)[C@@H](NC(=O)c3ccccc3)c3ccccc3)C(C)=C1C2(C)C` (stereo partly specified), the TGI amounted to 5.65 µM in the assay on HCT-116 colon; 20.4 µM in the assay on LOX IMVI melanoma; 0.0932 µM in the assay on OVCAR-3 ovarian; 34.9 µM in the assay on SF-268 CNS; 13.1 µM in the assay on SK-MEL-5 melanoma; 88.4 µM with SNB-19 CNS. Besides, the TGI was above 61.2 µM in the assay on TK-10 renal, 18 µM with U251 CNS and 21.4 µM with UACC-257 melanoma.
Regarding `COc1cc2c(cc1OC)C(c1ccccc1CCCCl)=NCC2`, the TGI in the assay with HCT-116 colon was above 100 µM; in the assay with KM12 colon, above 100 µM; in the assay with OVCAR-3 ovarian, above 100 µM; with SF-268 CNS, above 100 µM; in the assay with SK-MEL-5 melanoma, 47.2 µM; with SNB-19 CNS, above 100 µM. The TGI with TK-10 renal, in the assay with U251 CNS and in the assay with UACC-257 melanoma was above 100 µM each time.

The values above are taken from PubChem BioAssay (NCI).
